From patent US10646454B2, “Microcell delivery systems including charged or magnetic particles for regulating rate of administration of actives” (E INK CALIFORNIA, LLC, priority 2017, dated 2020) come the findings set out here.

The conditions of the series: for release profile: versus control, FIG. 12. How it is done: Two layers of dialysis tubing (Thermo-Fisher, Waltham, Mass.) were cut to fit across the opening at the joint of the Franz cell. For control measurements, 500 μL of a 1.3 mg/mL solution of nicotine in D.I. water was pipetted into the top of the cell. Samples were removed from the receptor cell at various time points as indicated in the graph in FIG. 12.
Subsequent experiments added small amounts of polymer-coated carbon nanoparticles between the two layers of dialysis tubing. The overall coverage was approximated by taking a photograph of the combined double layer nanoparticle sandwich from the top and assessing the darkness of the layer. […] For approximately 35% coverage [circles] and for full (100%) coverage [triangles], a sample of 500 μL of a 1.3 mg/mL solution of nicotine in D.I. water was pipetted into the top of the cell and samples were removed at various time points.

Like-named read-outs stand apart in the source and are kept apart here.

In the case of `CN1CCCC1c1cccnc1` (stereo not drawn) [nicotine], the release profile result (approximately 35% coverage with polymer-coated carbon nanoparticles between two layers of dialysis tubing) was “very similar to the control” and the release profile result (full (100%) coverage with polymer-coated carbon nanoparticles between two layers of dialysis tubing) is on record as “sizeable difference”. Moreover, the “reduction in the total nicotine delivered over 24 hours” value (full (100%) coverage with polymer-coated carbon nanoparticles between two layers of dialysis tubing, versus control without particles, 500 μL of 1.3 mg/mL nicotine in D.I. water) came out at 50%.
